US20250057985A1, “REEXPRESSION OF HNF4A TO ALLEVIATE CANCER-ASSOCIATED CACHEXIA” (YEDA RESEARCH AND DEVELOPMENT CO. LTD., priority 2022, published 2025)
One block for each molecule: values may come before it.

Tests used:
STAT3 = molecular target: T1, STAT3 (Mus musculus, UniProt P42227); test: STAT3 inhibitor in IL-6-treated primary hepatocytes, OTC RT-PCR; type: cell-based; conditions: 10 μM inhibitor 30 min then IL-6 48 h
T1 construct: endogenous in cells; host or cells: primary mouse hepatocytes isolated by liver perfusion
Method: Primary hepatocytes culture: Following perfusion, 1×10^6 isolated hepatocytes were seeded in 3 ml Williams E+Glutamx-TM-1 in 6 well plate. Four hours after, the medium was aspirated, and the cells were washed with PBS and incubated with 2 ml Williams E+Glutamx-TM-1 overnight. Cells were treated with 10 μM of HJC0152 STAT3 inhibitor (Selleckchem #58561), for 30 minutes cells and then treated with 10 ng/ml recombinant mouse IL-6 (R&D #406-ML-005) for 48 h.
RNA processing and quantitative PCR: RNA was extracted from liver tissue by using QIAzol Lysis Reagent (according to QIAzol® Handbook) or by Direct-zol™ MiniPrep Plus Kit (Zymo Research ZR-R2070). For hepatocytes RNA sequencing, RNA was extracted from dissociated hepatocytes. Following liver perfusion as previously described, hepatocytes were resuspended in QIAzol and frozen in −80° C. RNA was extracted by using QIAzol Lysis Reagent. RNA from cultured primary hepatocytes was extracted by using RNeasy Mini Kit (QIAGENe #74104). To evaluate mtDNA copy number, total DNA was isolated using DNA purification kit (DNeasy Blood & Tissue Kits Qiagen #69504). cDNA was synthesized from […] RNA by using qScript cDNA Synthesis Kit (Quanta #95749). Detection on cDNAs was performed using Syber Green Fast mix Perfect CT (Quantabio #95073) with the required primers (qPCR primer list—Table 1)

CD8+ splenocytes = conditions: ex-vivo, 1 mM ammonia, WT mice
Method: Activation of T cells from mice spleens: 10 weeks old WT female Balb/c mice were sacrificed and spleen harvested into cold-PBS on ice. Spleens were homogenized by syringe plunger through 70 uM strainer and washed with PBS. Following centrifugation at 1200 rpm for 5 min pellets were treated with RBC lysis buffer according to the manufacturer's instruction. Cells were resuspended in 2×10^6 cells/ml in splenocytes medium (complete RPMI medium supplemented with 50 μM β-mercaptoethanol, […] and Non-essential amino acids) supplemented with 6,000 IU/mL IL-2 (Chiron, rhIL2) and seeded in 24 well plates pre-coated with CD3 (BLG #100302). Following 72 h, cells were collected, centrifuged at 1200 rpm for 5 min, washed with splenocytes medium×2, and analyzed using CytoFLEX (Beckman Coulter) FACS analyzer.

primary hepatocytes = test: IL-6 supplementation of primary hepatocytes, RT-PCR; type: cell-based, mouse
Method: Liver Perfusions and hepatocytes dissociation: Livers of anaesthetized mice were perfused, with specific adjustments. The vena cava was inserted with 27 G syringe, fixed on the perfusion line. 10 ml of pre-warmed to 42° C. PPML buffer followed by 25 ml of pre-warmed to 42′C PM buffer with Liberase (Roche, cat #05401127001) were perfused through the vena cava. Immediately at the beginning of the perfusion, the portal vein was cut. Following perfusion of 25 ml of PM buffer and Liberase solution, livers were harvested into a Petri dish with 10 ml of pre-warmed PM buffer and chopped by forceps. Dissociated liver cells were collected and filtered through a slanted 100 um cell strainer. Cells were spin down at 30 g for 3 min at 4° C. to get hepatocytes enriched pellet. Pellet was resuspended in […] cold PM buffer. To enrich live hepatocytes, 21.6 ml cold Percoll (G.E. Healthcare #17-0891-01) mixed with +2.4 ml DPBSX10+CaCl2)+MgCl2 was added to the cells. Cells were centrifuged at 600 rpm for 10 minutes at 4° C. Supernatant containing the dead cells was aspirated, and cells were resuspended in 25 ml of cold Williams E+Glutamx-TM-1 (Gibco, cat #32551, 1% penstrep, 1% FBS, 1% L-Glutamine). […]
RNA processing and quantitative PCR: RNA was extracted from liver tissue by using QIAzol Lysis Reagent (according to QIAzol® Handbook) or by Direct-zol™ MiniPrep Plus Kit (Zymo Research ZR-R2070). […]

T1 sequence (P42227 whole entry, the tested form may be a part): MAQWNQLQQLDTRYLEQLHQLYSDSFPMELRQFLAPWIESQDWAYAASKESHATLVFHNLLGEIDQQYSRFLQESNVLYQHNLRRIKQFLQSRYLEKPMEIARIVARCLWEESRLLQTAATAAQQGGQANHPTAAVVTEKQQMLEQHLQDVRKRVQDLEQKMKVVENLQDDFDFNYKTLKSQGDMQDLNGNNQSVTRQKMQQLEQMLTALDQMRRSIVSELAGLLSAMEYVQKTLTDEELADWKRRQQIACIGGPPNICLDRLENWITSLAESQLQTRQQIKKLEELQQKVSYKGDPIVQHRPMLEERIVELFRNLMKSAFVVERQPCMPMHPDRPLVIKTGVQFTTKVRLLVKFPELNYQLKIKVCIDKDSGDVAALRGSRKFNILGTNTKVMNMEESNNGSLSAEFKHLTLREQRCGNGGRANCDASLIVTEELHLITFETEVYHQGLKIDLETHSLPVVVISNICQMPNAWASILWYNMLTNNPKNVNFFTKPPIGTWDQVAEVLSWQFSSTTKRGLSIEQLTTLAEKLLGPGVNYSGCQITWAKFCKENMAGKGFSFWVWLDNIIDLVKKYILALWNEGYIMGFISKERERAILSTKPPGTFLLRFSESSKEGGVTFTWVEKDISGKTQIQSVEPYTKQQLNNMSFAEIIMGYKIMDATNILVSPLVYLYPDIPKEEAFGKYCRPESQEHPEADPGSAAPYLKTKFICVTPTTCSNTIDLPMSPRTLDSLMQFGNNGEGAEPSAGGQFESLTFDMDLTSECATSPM

OTC expression levels in the presence of IL-6 (STAT3): rescued | OTC expression levels in the presence of IL-6 (STAT3; listed as HJCO152): restores
Molecule: NCCOc1ccc(Cl)cc1C(=O)Nc1ccc([N+](=O)[O-])cc1Cl [HJC0152]

Molecule: N [ammonia]
activation of T-cells splenocytes (CD8+ splenocytes): reduced | survival of T-cells splenocytes (CD8+ splenocytes): reduced

B1: IL-6: recombinant mouse IL-6 (R&D #406-ML-005) (protein, UniProt P08505 25-211, looked up)
Interleukin-6: FPTSQVRRGDFTEDTTPNRPVYTTSQVGGLITHVLWEIVEMRKELCNGNSDCMNNDDALAENNLKLPEIQRNDGCYQTGYNQEICLLKISSGLLEYHSYLEYMKNNLKDNKKDKARVLQRDTETLIHIFNQEVKDLHKIVLPTPISNALLTDKLESQKEWLRTKTIQFILKSLEEFLKVTLRSTRQT
RNA expression levels of OTC (primary hepatocytes; 10 ng/ml recombinant mouse IL-6, 48 h): decreased | CCL2 RNA levels (primary hepatocytes; IL-6 supplementation): increased
